Source: US20230123334A1, “AMINO LIPID COMPOUND, PREPARATION METHOD THEREFOR, AND APPLICATION THEREOF” (SHENZHEN SHENXIN BIOTECHNOLOGY CO., LTD., priority 2020, published 2023)

Test system: HEK293 cells
Test: Preliminary screening as mRNA vectors, EGFP mRNA transfection of HEK293 cells
Type: cell-based
Conditions: EGFP mRNA 50 ng per well, 96-well plates; percentage of GFP fluorescent cells relative to total number of cells (Hoechst)
Procedure, shortened: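 Each well of HEK293 cells received 50 ng of EGFP mRNA. Efficiency was expressed as percent GFP-expressing cells over Hoechst-defined total cell number.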

Structure (SMILES)	Absolute mRNA transfection efficiency in HEK293 cells
CCCCCCCCCCCCCNc1nc(NCCCN2CCOCC2)nc(SCCCCCCCCC)n1 [Compound D8S9N13]	12.6%
CCCCCCCCCCCCCCCNc1nc(NCCCN2CCOCC2)nc(SCCCCCCCCC)n1 [Compound D8S9N15]	7.2%
CCCCCCCCCCCCCCCCNc1nc(NCCCN2CCOCC2)nc(SCCCCCCCCC)n1 [Compound D8S9N16]	2.1%
CCCCCCCCCCCCCCCCCCNc1nc(NCCCN2CCOCC2)nc(SCCCCCCCCC)n1 [Compound D8S9N18]	1.9%
CCCCCCCCCCSc1nc(NCCCCCC)nc(NCCCN2CCOCC2)n1 [Compound D8S10N6]	0.2%
CCCCCCCCCCSc1nc(NCCCCCCC)nc(NCCCN2CCOCC2)n1 [Compound D8S10N7]	0.6%
CCCCCCCCCCSc1nc(NCCCCCCCC)nc(NCCCN2CCOCC2)n1 [Compound D8S10N8]	0.4%
CCCCCCCCCCSc1nc(NCCCCCCCCC)nc(NCCCN2CCOCC2)n1 [Compound D8S10N9]	0.1%
CCCCCCCCCCCNc1nc(NCCCN2CCOCC2)nc(SCCCCCCCCCC)n1 [Compound D8S10N11]	0.1%
CCCCCCCCCCCCNc1nc(NCCCN2CCOCC2)nc(SCCCCCCCCCC)n1 [Compound D8S10N12]	0.1%
CCCCCCCCCCCCCNc1nc(NCCCN2CCOCC2)nc(SCCCCCCCCCC)n1 [Compound D8S10N13]	0.2%
CCCCCCCCCCCCCCCNc1nc(NCCCN2CCOCC2)nc(SCCCCCCCCCC)n1 [Compound D8S10N15]	0.2%
CCCCCCCCCCCCCCCCNc1nc(NCCCN2CCOCC2)nc(SCCCCCCCCCC)n1 [Compound D8S10N16]	0.2%
CCCCCCCCCCCCCCCCCCNc1nc(NCCCN2CCOCC2)nc(SCCCCCCCCCC)n1 [Compound D8S10N18]	0.1%
CCCCCCCCCCCSc1nc(NCCCCCC)nc(NCCCN2CCOCC2)n1 [Compound D8S11N6]	2.8%
CCCCCCCCCCCSc1nc(NCCCCCCC)nc(NCCCN2CCOCC2)n1 [Compound D8S11N7]	3.1%
CCCCCCCCCCCSc1nc(NCCCCCCCC)nc(NCCCN2CCOCC2)n1 [Compound D8S11N8]	0.3%
CCCCCCCCCCCSc1nc(NCCCCCCCCC)nc(NCCCN2CCOCC2)n1 [Compound D8S11N9]	1.6%
CCCCCCCCCCCNc1nc(NCCCN2CCOCC2)nc(SCCCCCCCCCCC)n1 [Compound D8S11N11]	3.6%
CCCCCCCCCCCCNc1nc(NCCCN2CCOCC2)nc(SCCCCCCCCCCC)n1 [Compound D8S11N12]	1.0%
CCCCCCCCCCCCCNc1nc(NCCCN2CCOCC2)nc(SCCCCCCCCCCC)n1 [Compound D8S11N13]	3.1%
CCCCCCCCCCCCCCCNc1nc(NCCCN2CCOCC2)nc(SCCCCCCCCCCC)n1 [Compound D8S11N15]	0.5%
CCCCCCCCCCCCCCCCNc1nc(NCCCN2CCOCC2)nc(SCCCCCCCCCCC)n1 [Compound D8S11N16]	0.7%
CCCCCCCCCCCCCCCCCCNc1nc(NCCCN2CCOCC2)nc(SCCCCCCCCCCC)n1 [Compound D8S11N18]	0.6%
CCCCCCCCCCCCSc1nc(NCCCCCC)nc(NCCCN2CCOCC2)n1 [Compound D8S12N6]	0.9%
